Measurements published in patent US20230085362A1, “PYRIMIDINE COMPOUNDS AND USE THEREOF” (National Health Research Institutes, priority 2021, published 2023).
Where two headings read alike, the source gives them in different places.

Tested on: Primary DRG cells
Test: Neurite outgrowth assay (group A), paclitaxel-induced neurotoxicity
Format: cell-based, C57BL/6 J mice
Conditions: for neuroprotection against paclitaxel-induced neurotoxicity: 1 µM compound, 0.05 µM paclitaxel; for activity at 1 µM: Mus musculus, read-out: Neurite outgrowth (%); for Neurite outgrowth (%) A-B (extent of protection): difference between compound 1 µM + paclitaxel 0.05 µM and paclitaxel 0.05 µM alone
Experimental: Compounds of this invention were evaluated using the neurite outgrowth assay as described in Chen et al., Scientific Reports, 7, 45366, DOI: 10.1038/srep45366 (2017).
Cell culture. For primary culture, dorsal root ganglia (“DRG”) were removed from 7-weeks-old C57BL/6 J mice and digested with 0.1% collagenase (Sigma-Aldrich, St. Louis, MO) for 1 hour, followed by 0.25% trypsin treatment for 25 minutes. The dissociated neuron cultures were plated at a density of 2.5×10^4 cells per well in a 96 well optics plates (CLS3614; Sigma-Aldrich) precoated with 1 mg/mL poly-D-lysine (A-003-M; Sigma-Aldrich) for 3 hours. Primary DRG cells were grown in DMEM-F12 (11320033; Gibco®, ThermoFisher Scientific, Waltham, MA) supplemented with 10% fetal bovine serum (FBS, 26140079; Gibco®, ThermoFisher). These cells were maintained at 37° C. in an environment containing 5% CO2.
Neurite outgrowth assay (group A). Primary DRG cells were incubated with one of the Example 2 compounds at 1 µM for 24 hours, and then treated with 0.05 µM paclitaxel for another 24 hours. After the paclitaxel treatment, the primary DRG cells were washed by PBS and then fixed with 4% paraformaldehyde (PFA, P6148; Sigma-Aldrich) for 15 minutes. The DRG cells thus fixed were permeabilized by 0.05% Triton X-100 in PBS for 20 minutes and blocked with 3% bovine serum albumin (BSA; Sigma-Aldrich, USA) at room temperature for 1 hour. Subsequently, DRG cells were stained with rabbit anti-β III tubulin (1:600; Cell Signaling, USA) and mouse anti-NeuN monoclonal antibody (1:400; Millipore, USA) overnight at 4° C. The samples were then washed by PBS and reacted with secondary antibodies (Alexa-488 and Alexa-594 1:600; Invitrogen, CA) at room temperature for 1 hour. For image acquisition and analysis of DRG neurite outgrowth, images of stained cells were automatically acquired using 10X objective by Image Xpress Micro wide field fluorescent microscope (Molecular Devices, USA). A control was obtained following the same procedure except that the DRG cells were not treated with a compound or paclitaxel. Neurite outgrowth was measured as a percentage of outgrowth as compared to the control.
The difference between A and B indicates an extent of protection provided by the compound.

[1] = DRG cells, 1 µM compound 24 h then 0.05 µM paclitaxel 24 h, % of untreated control

SMILES	neuroprotection against paclitaxel-induced neurotoxicity	activity at 1 µM (24 h)	Neurite outgrowth (%) A-B (extent of protection)	activity at 1 µM [1]
O=C(O)CCN1CCC(Nc2cc(N3CCOCC3)nc(NCc3cn(CC(=O)O)nn3)n2)CC1 [Compound 6]	neuroprotection was provided	46%	3%	
NCCCn1cc(CNc2nc(NC3CCN(C(=O)CCNC(=O)C4(O)CC(O)C(O)C(O)C4)CC3)cc(N3CCOCC3)n2)nn1 (stereo not shown) [Compound 15]	neuroprotection was provided		3%	35%
CC(C)NCCCn1cc(CNc2nc(NC3CCNCC3)cc(N3CCOCC3)n2)nn1 [Compound 18]	neuroprotection was provided		3%	50%
COC(=O)c1cccc(CNCCCn2cc(CNc3nc(NC4CCN(Cc5ccccc5)CC4)cc(N4CCOCC4)n3)nn2)c1 [Compound 21]	neuroprotection was provided		3%	45%
CCCCC(=O)NCCCn1cc(CNc2nc(NC3CCN(CCP(=O)(O)O)CC3)cc(N3CCOCC3)n2)nn1 [Compound 28]	neuroprotection was provided		3%	53%
OCCCn1cc(CNc2nc(NC3CCNCC3)cc(N3CCCCC3)n2)nn1 [Compound 38]	neuroprotection was provided		5%	37%
CN1CCN(c2cc(NC3CCNCC3)nc(NCc3cn(CCCO)nn3)n2)CC1 [Compound 41]	neuroprotection was provided		3%	34%
CN1CCN(c2cc(NCc3cccnc3)nc(NCc3cn(CCCO)nn3)n2)CC1 [Compound 42]	neuroprotection was provided		3%	34%
COC(=O)CCN1CCC(Nc2cc(N3CCOCC3)nc(NCc3cn(CCCO)nn3)n2)CC1 [Compound 48]	neuroprotection was provided		11%	58%
CC(O)Cn1cc(CNc2nc(NC3CCNCC3)cc(N3CCOCC3)n2)nn1 (stereo not shown) [Compound 53]	neuroprotection was provided		2%	47%
CC(C)(O)CCn1cc(CNc2nc(NC3CCN(CCP(=O)(O)O)CC3)cc(N3CCOCC3)n2)nn1 [Compound 60]	neuroprotection was provided		4%	40%
COCCCn1cc(CNc2nc(NC3CCNCC3)cc(N3CCOCC3)n2)nn1 [Compound 61]	neuroprotection was provided		3%	52%
COCCCn1cc(CNc2nc(NC3CCN(CCC(=O)OC)CC3)cc(N3CCOCC3)n2)nn1 [Compound 62]	neuroprotection was provided		3%	50%
COC(=O)CCOCCCn1cc(CNc2nc(NC3CCN(Cc4ccccc4)CC3)cc(N3CCOCC3)n2)nn1 [Compound 65]	neuroprotection was provided			
COC(=O)CCOCCCn1cc(CNc2nc(NC3CCN(CCC(=O)OC)CC3)cc(N3CCOCC3)n2)nn1 [Compound 66]	neuroprotection was provided		5%	52%
COC(=O)CCOCCCn1cc(CNc2nc(NC3CCN(Cc4cccc(C(=O)OC)c4)CC3)cc(N3CCOCC3)n2)nn1 [Compound 68]	neuroprotection was provided	41%	1%	
